≈ marks a conversion by molar mass, not a printed value.

For the data set the following is noted: buffer; pH 7.4; 200.0 µM.
Turning to `CC1CN(C(=O)C2CC(=O)N(c3ccc(Cl)cc3)C2)CC(C)O1` (stereo not drawn), the kinetic solubility was above 50.5 µg/mL. To `Cc1c(C(C)(C)C)s/c(=N/S(=O)(=O)c2ccccc2)n1C` belongs 43.7 µg/mL (≈ 135 µM); to `CCOC(=O)Cc1c(C)nc(N)[nH]c1=O`, 31.1 µg/mL (≈ 147 µM); to `O=C(c1cccc(S(=O)(=O)N2CCN(c3ccc(F)cc3)CC2)c1)N1CCCC1`, 61.9 µg/mL (≈ 148 µM).

With `O=C(CSc1cccc[n+]1[O-])Nc1cc(Cl)ccc1[N+](=O)[O-]`, the kinetic solubility is above 51 µg/mL. Molecule `c1ccc2[nH]c(CCCCc3nc4ccccc4[nH]3)nc2c1` displayed a kinetic solubility of 43.4 µg/mL (≈ 149 µM). As to `CCCCNC(=O)CSc1nc(CCC)nc2ccccc12`, the kinetic solubility amounted to 4 µg/mL (≈ 12.6 µM). `CCCn1c(C)nnc1SCC(=O)NC1CCCCC1` returned a solubility (kinetic) above 44.5 µg/mL. Next, `CN1CCN(c2c(F)cc3c(=O)c(C(=O)[O-])cn4c3c2OCN4C)CC1`: above 54.2 µg/mL. Next, `CN(C)/C=C/C(=O)c1cc(N2CCOCC2)ccc1[N+](=O)[O-]`: above 45.8 µg/mL; `COc1ccc(N2CCN(C(=O)CCc3ccccc3)CC2)cc1`: above 48.7 µg/mL. In the case of `CSc1cccc(NC(C)C(=O)NCc2ccccc2)c1` (stereo not drawn), the kinetic solubility was determined as 37.4 µg/mL (≈ 124 µM). For the molecule `COc1ccccc1NC(=O)CCn1c(=S)oc2ccccc21`, the solubility (kinetic) was 7 µg/mL (≈ 21.3 µM). As to `O=C(NCC(O)c1ccccc1)c1ccccc1` (stereo not drawn), the solubility (kinetic) was above 36.2 µg/mL. On to `CCCCCNC(=O)c1ccc2c(c1)ncn2-c1ccc(OC)cc1`, for which the solubility (kinetic) was 26.9 µg/mL (≈ 79.7 µM).

As to `NCCc1c(Cc2ccccc2)[nH]c2ccccc12`, the kinetic solubility was 34.5 µg/mL (≈ 138 µM). To `O=C(Cc1ccc(Cl)cc1)Nc1cccc2ncccc12` belongs 3.9 µg/mL (≈ 13.1 µM); to `CNc1ccc(Cl)nn1`, above 21.5 µg/mL. To `COc1ccc2c(C#N)c3ccccn3c2c1` belongs 0.9 µg/mL (≈ 4.05 µM); to `COC(=O)C1=C(C)N(C)C(=O)NC1c1c(O)ccc2ccccc12` (stereo not drawn), above 49 µg/mL; to `Cc1ccc(C(=O)NC(C)c2ccncc2)o1` (stereo not drawn), above 34.5 µg/mL. In the case of `Cc1nc(SCC(=O)Nc2ccc(S(=O)(=O)N3CCOCC3)cc2)c2c(C)c(C)sc2n1`, the kinetic solubility is 7.3 µg/mL (≈ 14.8 µM). Consider `CC1CCCC(NC(=O)COC(=O)c2ccc(Br)o2)C1C` (stereo not drawn), for which the kinetic solubility was 8.2 µg/mL (≈ 22.9 µM).

Turning to `c1coc(CNc2nc3ccccc3s2)c1`, the solubility (kinetic) turned out to be 32.3 µg/mL (≈ 140 µM). `Cc1occc1C(=O)NCc1nc(-c2ccc(Cl)cc2)no1` gave a solubility (kinetic) of 37.8 µg/mL (≈ 119 µM).

Take `S=P(N1CC1)(N1CC1)N1CC1`: the solubility (kinetic) is above 28.4 µg/mL.

Consider `CCCn1c(N)c(N2CCCCC2)c(=O)n(CC(=O)Nc2ccccc2C(F)(F)F)c1=O`, for which the kinetic solubility is 7.7 µg/mL (≈ 17 µM). For the molecule `O=C(OCC(=O)c1ccc[nH]1)c1ccc(F)c(S(=O)(=O)N2CCOCC2)c1`, the kinetic solubility came out at 7.8 µg/mL (≈ 19.7 µM). For `OCCNCCCOc1cc(Cl)ccc1Cl`, the kinetic solubility amounted to 31.9 µg/mL (≈ 121 µM). `O=C(O)CCSc1nc2ccccc2n1Cc1ccccc1`: the kinetic solubility worked out at 43.7 µg/mL (≈ 140 µM). `Cc1cc(C)c(C)c(S(=O)(=O)N2CCN(C(=O)c3ccco3)CC2)c1C` displayed a solubility (kinetic) of 4.1 µg/mL (≈ 10.9 µM). `CCCCc1nnc(NC(=O)C2=COCCO2)s1`: the kinetic solubility was above 40.4 µg/mL. `CC(C)(C)NC(=O)NC(=O)CN1CCCCCCC1` displayed a kinetic solubility of 21.2 µg/mL (≈ 78.7 µM). `O=C(OCC(=O)N1CCCC1)c1c[nH]c2ccccc12` had a kinetic solubility above 40.8 µg/mL.

`CN1CCN(Cc2cc(=O)n3ccsc3n2)CC1` displayed a solubility (kinetic) of 35.7 µg/mL (≈ 135 µM). For `Cc1ccc(S(=O)(=O)N2CCCCC2)cc1C(=O)OCC(=O)N1c2ccccc2NC(=O)C1(C)C`, the solubility (kinetic) came out at 3.2 µg/mL (≈ 6.41 µM). In turn, `CCOC(=O)C(Cc1ccccc1)C(=O)NCc1ccccc1` (stereo not drawn) came in with a kinetic solubility above 46.7 µg/mL. The molecule `CN1CCCN(C(=O)c2ccc(Br)cc2)CC1` displayed a kinetic solubility of 41.4 µg/mL (≈ 139 µM). Turning to `Cc1cc(=O)[nH]c(SCc2ccc(Cl)cc2Cl)n1`, the kinetic solubility worked out at 1.2 µg/mL (≈ 3.98 µM).

`O=C(Nc1ccsc1C(=O)O)c1cccc(Oc2ccccc2)c1` registered a solubility (kinetic) of 43.2 µg/mL (≈ 127 µM).

`Cc1cccc(NC(=O)NCC2CC2)c1` showed a kinetic solubility above 30.6 µg/mL. Consider `Cc1ccc(C2(CCNCc3ccco3)CCOC(C(C)C)C2)cc1` (stereo not drawn), for which the solubility (kinetic) is above 51.2 µg/mL.

With `C#CCNC(=O)c1ccc(OCc2ccccc2)cc1Cl`, the solubility (kinetic) came to 41.7 µg/mL (≈ 139 µM). In turn, `Cc1ccn2c(=O)cc(C)nc2c1` showed a solubility (kinetic) above 26.1 µg/mL.

Turning to `CC1CCCN(S(=O)(=O)c2ccc([N+](=O)[O-])cc2)C1` (stereo not drawn), the solubility (kinetic) came out at 2.9 µg/mL (≈ 10.2 µM). Molecule `O=c1[nH]c(O)c(C=NC2CCCCC2)c(=O)[nH]1` had a kinetic solubility above 35.6 µg/mL.

`CCc1ccc2c(CN3CCC(C(=O)OC)CC3)cc(=O)oc2c1` returned a kinetic solubility above 49.4 µg/mL. `COc1cc2ccccc2cc1C(=O)Nc1ccc2oc(=O)ccc2c1` returned a kinetic solubility below 0.7 µg/mL. The molecule `CCOC(=O)c1c(C)[nH]c(C(=O)OCc2ccc(C)cc2)c1C` came in with a kinetic solubility of 3.2 µg/mL (≈ 10.1 µM).

The molecule `CCCN1CCC(N2CCCC(C(=O)O)C2)CC1.Cl` (stereo not drawn) yielded a solubility (kinetic) above 49.1 µg/mL. Molecule `C#CC1(NC(=O)NC(=O)c2c(F)cccc2F)CCCCC1` gave a solubility (kinetic) of 0.6 µg/mL (≈ 1.96 µM). To `Cc1ccc(S(=O)(=O)CC(O)COc2ccc(C#N)cc2)cc1` (stereo not drawn) belongs above 49.7 µg/mL. For the molecule `[O-][n+]1ccccc1/C=C/c1ccccc1`, the kinetic solubility was above 29.6 µg/mL.

Values taken from PubChem BioAssay AID1996.
